The assay has as its target T1, cannabinoid receptor 1 (CB1R, hCB1R) (Homo sapiens, UniProt P21554).
T1 construct: gene CNR1; purified human CB1R (hCB1R) protein that is close to its full-length (473 amino acids)
As to the kind of experiment: biochemical. It counts as binding.

In general, Kd refers to the concentration at which binding is half-saturated.

T1 sequence (P21554 whole entry): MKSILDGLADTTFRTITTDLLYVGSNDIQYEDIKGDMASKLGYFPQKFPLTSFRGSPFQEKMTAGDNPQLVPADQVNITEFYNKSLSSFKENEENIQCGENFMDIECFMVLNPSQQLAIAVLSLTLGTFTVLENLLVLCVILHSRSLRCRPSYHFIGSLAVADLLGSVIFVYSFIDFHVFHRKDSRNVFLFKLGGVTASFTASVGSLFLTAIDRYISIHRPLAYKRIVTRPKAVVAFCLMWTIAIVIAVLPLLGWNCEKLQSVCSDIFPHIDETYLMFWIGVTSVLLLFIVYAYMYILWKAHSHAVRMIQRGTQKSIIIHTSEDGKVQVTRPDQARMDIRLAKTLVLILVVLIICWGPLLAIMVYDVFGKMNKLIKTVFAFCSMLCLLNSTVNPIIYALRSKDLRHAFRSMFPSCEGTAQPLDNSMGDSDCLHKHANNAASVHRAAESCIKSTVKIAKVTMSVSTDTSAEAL

The compound `CN1CCN(C2=Nc3cc(Cl)ccc3Nc3ccccc32)CC1` [Clz, clozapine] yielded a Kd of 2.65 nM. Turning to `Cc1cc2c(s1)Nc1ccccc1N=C2N1CCN(C)CC1` [Olz, olanzapine], binding was characterised by a dissociation constant (Kd) of 2.53 nM.

The values are drawn from PMC9225989 (Signal Transduction and Targeted Therapy, 2022).
